“And” between values parts separate entries of the source, which are not always exact repeats. Equal values may be shown once. Inconclusive results and toxic doses are left out.
System: P388 leukemia ip, CD2F1 mice, survival T/C
Assay: NCI In Vivo Anticancer Drug Screen. Data for tumor model P388 Leukemia (intraperitoneal) in CD2F1 (CDF1) mice
Details: endpoint: median survival time, higher = longer survival
Method in brief: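 Mice carrying the transplanted tumor received test compound or vehicle. Survival was recorded in each group, and the value is the treated-group measurement divided by that of the vehicle-treated control group.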

[1] = dose: 50.0 mg/kg/injection, schedule: Q01DX009 (ip), vehicle: saline with Tween-80
[2] = dose: 100.0 mg/kg/injection, schedule: Q01DX009 (ip), vehicle: saline with Tween-80
[3] = dose: 6.25 mg/kg/injection, schedule: Q01DX009 (ip), vehicle: saline
[4] = dose: 12.5 mg/kg/injection, schedule: Q01DX009 (ip), vehicle: saline
[5] = dose: 25.0 mg/kg/injection, schedule: Q01DX009 (ip), vehicle: saline
[6] = dose: 100.0 mg/kg/injection, schedule: Q01DX009 (ip), vehicle: saline
[7] = dose: 200.0 mg/kg/injection, schedule: Q01DX009 (ip), vehicle: saline
[8] = dose: 25.0 mg/kg/injection, schedule: Q01DX009 (ip), vehicle: Klucel (hydroxypropylcellulose) (HPC)
[9] = dose: 50.0 mg/kg/injection, schedule: Q01DX009 (ip), vehicle: Klucel (hydroxypropylcellulose) (HPC)
[10] = dose: 100.0 mg/kg/injection, schedule: Q01DX009 (ip), vehicle: Klucel (hydroxypropylcellulose) (HPC)
[11] = dose: 200.0 mg/kg/injection, schedule: Q01DX009 (ip), vehicle: Klucel (hydroxypropylcellulose) (HPC)
[12] = dose: 60.0 mg/kg/injection, schedule: Q01DX005 (ip), vehicle: saline with Tween-80
[13] = dose: 120.0 mg/kg/injection, schedule: Q01DX005 (ip), vehicle: saline with Tween-80
[14] = dose: 240.0 mg/kg/injection, schedule: Q01DX005 (ip), vehicle: saline with Tween-80
[15] = dose: 100.0 mg/kg/injection, schedule: Q01DX001 (ip), vehicle: saline
[16] = dose: 200.0 mg/kg/injection, schedule: Q01DX001 (ip), vehicle: saline
[17] = dose: 50.0 mg/kg/injection, schedule: Q01DX009 (ip), vehicle: saline
[18] = dose: 50.0 mg/kg/injection, schedule: Q01DX005 (ip), vehicle: Klucel (hydroxypropylcellulose) (HPC)
[19] = dose: 100.0 mg/kg/injection, schedule: Q01DX005 (ip), vehicle: Klucel (hydroxypropylcellulose) (HPC)

CC(O)CNC1CCCCC1 (stereo not given)
T/C (dose: 25.0 mg/kg/injection, schedule: Q01DX009 (ip), vehicle: saline with Tween-80): 100 % of control | T/C [1]: 100 % of control | T/C [2]: 100 % of control

CCc1cccc(CC)c1N1C(=O)COCC1=O
T/C [3]: 96 % of control | T/C [4]: 93 % of control | T/C [5]: 92 % of control | T/C [6]: 100 % of control | T/C [7]: 100 % of control

Cc1cccc2c(/C=C/c3ccc(N(C)C)cc3)ccnc12
T/C [8]: 105 % of control | T/C [9]: 105 % of control and 117 % of control | T/C [10]: 117 % of control | T/C [11]: 106 % of control

CC12CCCN1CC=C2CO (stereo not given)
T/C (dose: 25.0 mg/kg/injection, schedule: Q01DX001 (ip), vehicle: saline with Tween-80): 100 % of control | T/C (dose: 50.0 mg/kg/injection, schedule: Q01DX001 (ip), vehicle: saline with Tween-80): 96 % of control | T/C (dose: 100.0 mg/kg/injection, schedule: Q01DX001 (ip), vehicle: saline with Tween-80): 100 % of control

Cc1nnc(N/N=C/c2ccc([N+](=O)[O-])o2)[nH]c1=O
T/C (dose: 6.25 mg/kg/injection, schedule: Q01DX005 (ip), vehicle: saline with Tween-80): 101 % of control and 114 % of control | T/C (dose: 12.5 mg/kg/injection, schedule: Q01DX005 (ip), vehicle: saline with Tween-80): 115 % of control and 118 % of control (2×)

CN1CCC/C1=C\C(=O)c1ccc([N+](=O)[O-])cc1
T/C (dose: 100.0 mg/kg/injection, schedule: Q04DX003 (ip), vehicle: Klucel (hydroxypropylcellulose) (HPC)): 107 % of control | T/C (dose: 200.0 mg/kg/injection, schedule: Q04DX003 (ip), vehicle: Klucel (hydroxypropylcellulose) (HPC)): 107 % of control | T/C (dose: 400.0 mg/kg/injection, schedule: Q04DX003 (ip), vehicle: Klucel (hydroxypropylcellulose) (HPC)): 93 % of control

Cc1ccc(S(=O)(=O)N(C=O)c2ccccc2)cc1
T/C [1]: 90 % of control | T/C [2]: 90 % of control

COC(=O)N1C(=O)CO[C@@H]1C(C)(C)C
T/C [12]: 103 % of control | T/C [13]: 99 % of control | T/C [14]: 104 % of control

O=C1c2ccccc2C(=O)N1Cc1ccc(CCl)s1
T/C (dose: 15.0 mg/kg/injection, schedule: Q01DX005 (ip), vehicle: saline with Tween-80): 101 % of control | T/C (dose: 30.0 mg/kg/injection, schedule: Q01DX005 (ip), vehicle: saline with Tween-80): 102 % of control | T/C [12]: 100 % of control and 105 % of control | T/C [13]: 119 % of control | T/C [14]: 112 % of control

S=c1nc[nH][nH]1
T/C (dose: 50.0 mg/kg/injection, schedule: Q01DX009 (ip), vehicle: suspension in saline): 99 % of control | T/C (dose: 100.0 mg/kg/injection, schedule: Q01DX009 (ip), vehicle: suspension in saline): 105 % of control | T/C (dose: 200.0 mg/kg/injection, schedule: Q01DX009 (ip), vehicle: suspension in saline): 106 % of control

CCCNC(C)(C)C(SS)c1ccc(C(F)(F)F)cc1 (stereo not given)
T/C (dose: 12.5 mg/kg/injection, schedule: Q01DX009 (ip), vehicle: other): 100 % of control | T/C (dose: 25.0 mg/kg/injection, schedule: Q01DX009 (ip), vehicle: other): 100 % of control | T/C (dose: 50.0 mg/kg/injection, schedule: Q01DX009 (ip), vehicle: other): 109 % of control

C[N+](C)(C)Cc1ccccc1
T/C (dose: 3.13 mg/kg/injection, schedule: Q01DX009 (ip), vehicle: saline with Tween-80): 100 % of control | T/C (dose: 3.13 mg/kg/injection, schedule: Q01DX009 (ip), vehicle: saline): 99 % of control | T/C (dose: 6.25 mg/kg/injection, schedule: Q01DX009 (ip), vehicle: Klucel (hydroxypropylcellulose) (HPC)): 95 % of control | T/C (dose: 6.25 mg/kg/injection, schedule: Q01DX009 (ip), vehicle: saline with Tween-80): 100 % of control | T/C [3]: 94 % of control | T/C (dose: 12.5 mg/kg/injection, schedule: Q01DX009 (ip), vehicle: Klucel (hydroxypropylcellulose) (HPC)): 93 % of control | T/C (dose: 12.5 mg/kg/injection, schedule: Q01DX009 (ip), vehicle: saline with Tween-80): 100 % of control | T/C [4]: 96 % of control | T/C [8]: 99 % of control

CS/C(N)=N/NC(=O)CCC(=O)Nc1cc(Cl)c(Cl)cc1Cl
T/C (dose: 100.0 mg/kg/injection, schedule: Q04DX002 (ip), vehicle: saline with Tween-80): 102 % of control | T/C (dose: 200.0 mg/kg/injection, schedule: Q04DX002 (ip), vehicle: saline with Tween-80): 100 % of control | T/C (dose: 400.0 mg/kg/injection, schedule: Q04DX002 (ip), vehicle: saline with Tween-80): 96 % of control

O=S(=O)(C#Cc1ccccc1)C(F)(F)F
T/C [15]: 105 % of control | T/C [16]: 105 % of control | T/C (dose: 400.0 mg/kg/injection, schedule: Q01DX001 (ip), vehicle: saline): 106 % of control

NCC(O)c1ccc(O)cc1 (stereo not given)
T/C [17]: 101 % of control and 111 % of control | T/C [6]: 106 % of control and 108 % of control | T/C [7]: 106 % of control and 90 % of control | T/C (dose: 400.0 mg/kg/injection, schedule: Q01DX009 (ip), vehicle: saline): 89 % of control and 96 % of control | T/C (dose: 600.0 mg/kg/injection, schedule: Q01DX009 (ip), vehicle: saline): 89 % of control and 90 % of control

N#C/C(=C\c1c(Cl)cccc1Cl)c1nc(-c2ccc(Cl)cc2)cs1
T/C [17]: 92 % of control | T/C [6]: 92 % of control | T/C [7]: 105 % of control

N#CC1=C(C#N)Sc2nc3cc(Cl)ccc3nc2S1
T/C [3]: 109 % of control | T/C [4]: 115 % of control and 95 % of control | T/C [5]: 108 % of control | T/C [17]: 115 % of control

Cc1nn(-c2ccccc2)nc1CCl
T/C [18]: 101 % of control | T/C [19]: 99 % of control | T/C (dose: 200.0 mg/kg/injection, schedule: Q01DX005 (ip), vehicle: Klucel (hydroxypropylcellulose) (HPC)): 95 % of control

CCN(CC)CCOCCOC1CC2CCC1(C)C2(C)C (stereo not given)
T/C (dose: 50.0 mg/kg/injection, schedule: Q01DX005 (ip), vehicle: saline): 99 % of control | T/C (dose: 100.0 mg/kg/injection, schedule: Q01DX005 (ip), vehicle: saline): 96 % of control

N#CCCSc1ccccc1N=Cc1ccccc1O
T/C [17]: 101 % of control | T/C [6]: 99 % of control | T/C [7]: 95 % of control

CCOC(=O)Nc1cc(Cl)c2ncn(C(=O)OCC)c2n1
T/C [9]: 96 % of control | T/C [10]: 90 % of control | T/C [11]: 93 % of control

CCC(C(=O)O)C(=O)O.[NH2-].[NH2-].[Pt+2]
T/C (dose: 50.0 mg/kg/injection, schedule: Q01DX001 (ip), vehicle: saline): 152 % of control | T/C [15]: 175 % of control | T/C [16]: 189 % of control and 205 % of control

CCOCC[Se]c1ccccc1
T/C [17]: 92 % of control | T/C [6]: 92 % of control | T/C [7]: 91 % of control

COc1nc(C(Br)Br)c([N+](=O)[O-])c(N2CCOCC2)n1
T/C (dose: 25.0 mg/kg/injection, schedule: Q01DX005 (ip), vehicle: Klucel (hydroxypropylcellulose) (HPC)): 109 % of control | T/C [18]: 101 % of control | T/C [19]: 87 % of control

COc1ccc(C(=O)N/N=C(\C)[C@]2(O)Cc3c(O)c4c(c(O)c3[C@@H](OC3CC(N)C(O)C(C)O3)C2)C(=O)c2c(OC)cccc2C4=O)cc1 (stereo not given in full)
T/C (dose: 0.12 mg/kg/injection, schedule: Q01DX009 (ip), vehicle: water): 119 % of control | T/C (dose: 0.5 mg/kg/injection, schedule: Q01DX009 (ip), vehicle: water): 151 % of control | T/C (dose: 1.0 mg/kg/injection, schedule: Q01DX009 (ip), vehicle: water): 158 % of control and 164 % of control | T/C (dose: 2.0 mg/kg/injection, schedule: Q01DX009 (ip), vehicle: water): 174 % of control and 190 % of control | T/C (dose: 4.0 mg/kg/injection, schedule: Q01DX009 (ip), vehicle: water): 181 % of control and 211 % of control | T/C (dose: 6.0 mg/kg/injection, schedule: Q04DX003 (ip), vehicle: water): 112 % of control | T/C (dose: 12.0 mg/kg/injection, schedule: Q04DX003 (ip), vehicle: water): 121 % of control | T/C (dose: 24.0 mg/kg/injection, schedule: Q04DX003 (ip), vehicle: water): 166 % of control | T/C (dose: 48.0 mg/kg/injection, schedule: Q04DX003 (ip), vehicle: water): 118 % of control

Nc1cccc2c1C(O)c1ccccc1-2 (stereo not given)
T/C (dose: 50.0 mg/kg/injection, schedule: Q01DX005 (ip), vehicle: saline with Tween-80): 95 % of control | T/C (dose: 100.0 mg/kg/injection, schedule: Q01DX005 (ip), vehicle: saline with Tween-80): 99 % of control | T/C (dose: 200.0 mg/kg/injection, schedule: Q01DX005 (ip), vehicle: saline with Tween-80): 90 % of control

— PubChem BioAssay AID330 (DTP/NCI, 2004)
